The record followed here is US9724347B2, “1-pyrazolyl-3-(4-((2-anilinopyrimidin-4-yl)oxy)napththalen-1-yl) ureas as P38 MAP knase inhibitors” (Respivert Ltd., priority 2011, dated 2017).

Molecules are shown by their SMILES.

In data set [1] the target is GSK 3α enzyme isoform (Homo sapiens (Human), UniProt P49840). Description: GSK 3α enzyme inhibition (FRET, Z-LYTE). The data set is classed as biochemical. To be noted: read-out: IC50 Values for Enzyme Inhibition GSK3α. Here is the method:
The enzyme inhibitory activities of compounds disclosed herein were determined by FRET using synthetic peptides labelled with both donor and acceptor fluorophores (Z-LYTE, Invitrogen Ltd., Paisley, UK).
The inhibitory activities of test compounds against the GSK 3α enzyme isoform (Invitrogen), were evaluated by determining the level of activation/phosphorylation of the target peptide.
The GSK3-α protein (500 ng/mL, 2.5 μL) was mixed with the test compound (2.5 μL at either 4 μg/mL, 0.4 μg/mL, 0.04 μg/mL, or 0.004 μg/mL) for 2 hr at RT. The FRET peptide (8 μM, 2.5 μL), which is a phosphorylation target for GSK3α, and ATP (40 μM, 2.5 μL) were then added to the enzyme/compound mixture and the resulting mixture incubated for 1 hr. Development reagent (protease, 5 μL) was added for 1 hr prior to detection in a fluorescence microplate reader (Varioskan® Flash, ThermoFisher Scientific).
In all cases, the site-specific protease cleaves non-phosphorylated peptide only and eliminates the FRET signal. Phosphorylation levels of each reaction were calculated using the ratio of coumarin emission (donor) over fluorescein emission (acceptor), for which low ratios indicate high phosphorylation and high ratios indicate low phosphorylation levels.

Data set [2] addresses p38 MAPKα isoform (MAPK14) (Homo sapiens (Human), UniProt Q16539). Description: p38 MAPKα enzyme inhibition (FRET, Z-LYTE). It is filed as biochemical. Here is the method:
The enzyme inhibitory activities of compounds disclosed herein were determined by FRET using synthetic peptides labelled with both donor and acceptor fluorophores (Z-LYTE, Invitrogen Ltd., Paisley, UK). The inhibitory activities of test compounds against the p38 MAPKα isoform (MAPK14: Invitrogen), were evaluated indirectly by determining the level of activation/phosphorylation of the down-stream molecule, MAPKAP-K2. […] The mixture was incubated for 1 hr at RT. Development reagent (protease, 5 μL) was added for 1 hr prior to detection in a fluorescence microplate reader (Varioskan® Flash, ThermoFisher Scientific). In all cases, the site-specific protease cleaves non-phosphorylated peptide only and eliminates the FRET signal. Phosphorylation levels of each reaction were calculated using the ratio of coumarin emission (donor) over fluorescein emission (acceptor), for which low ratios indicate high phosphorylation and high ratios indicate low phosphorylation levels.

Data set [3] addresses p38MAPKγ (MAPK12) (Homo sapiens (Human), UniProt P53778). Description: p38 MAPKγ enzyme inhibition (FRET, Z-LYTE). The data set is classed as biochemical. Here is the method: The enzyme inhibitory activities of compounds disclosed herein were determined by FRET using synthetic peptides labelled with both donor and acceptor fluorophores (Z-LYTE, Invitrogen Ltd., Paisley, UK). […] Development reagent (protease, 5 μL) was added for 1 hr prior to detection in a fluorescence microplate reader (Varioskan® Flash, Thermo Scientific). In all cases, the site-specific protease cleaves non-phosphorylated peptide only and eliminates the FRET signal. Phosphorylation levels of each reaction were calculated using the ratio of coumarin emission (donor) over fluorescein emission (acceptor), for which low ratios indicate high phosphorylation and high ratios indicate low phosphorylation levels.

Data set [4] deals with ICAM-1 expression in BEAS2B cells. Description: Poly I:C-induced ICAM-1 expression in BEAS2B cells. The data set is classed as cell-based, human. To be noted: Homo sapiens, BEAS-2B, read-out: PolyIC/ICAM1 IC50 (BEAS2B). Here is the method: Poly I:C was used in these studies as a simple, RNA virus mimic. Poly I:C-Oligofectamine mixture (1 μg/mL Poly I:C, ±2% Oligofectamine, 25 μL; Invivogen Ltd., San Diego, Calif., and Invitrogen, Carlsbad, Calif., respectively) was transfected into BEAS2B cells (human bronchial epithelial cells, ATCC). Cells were pre-incubated with final concentrations of test compounds for 2 hr and the level of ICAM-1 expression on the cell surface was determined by cell-based ELISA. At a time point 18 hr after poly I:C transfection, cells were fixed with 4% formaldehyde in PBS (100 μL) and then endogenous peroxidase was quenched by the addition of washing buffer (100 μL, 0.05% Tween in PBS: PBS-Tween) containing 0.1% sodium azide and 1% hydrogen peroxide. Cells were washed with wash-buffer (3×200 μL). and after blocking the wells with 5% milk in PBS-Tween (100 μL) for 1 hr, the cells were incubated with anti-human ICAM-1 antibody (50 μL; Cell Signaling Technology, Danvers, Mass.) in 1% BSA PBS overnight at 4° C.
The cells were washed with PBS-Tween (3×200 μL) and incubated with the secondary antibody (100 μL; HRP-conjugated anti-rabbit IgG, Dako Ltd., Glostrup, Denmark). The cells were then incubated with of substrate (50 μL) for 2-20 min, followed by the addition of stop solution (50 μL, 1N H2SO4). The ICAM-1 signal was detected by reading […] the absorbance at 450 nm against a reference wavelength of 655 nm using a spectrophotometer. The cells were then washed with PBS-Tween (3×200 μL) and total cell numbers in each well were determined by reading absorbance at 595 nm after Crystal Violet staining (50 μL of a 2% solution in PBS) and elution by 1% SDS solution (100 μL) in distilled water. The measured OD 450-655 readings were corrected for cell number by dividing with the OD595 reading in each well. The inhibition of ICAM-1 expression was calculated at each concentration of test compound by comparison with vehicle control.

The test system of data set [5] is d-U937 cells. Description: Cell viability: MTT assay. As to conditions: 1 μg/mL. It is filed as cell-based, human. Here is the method: Differentiated U937 cells were pre-incubated with each test compound (final concentration 1 μg/mL or 10 μg/mL in 200 μL media indicated below) under two protocols: the first for 4 hr in 5% FCS RPMI1640 media and the second in 10% FCS RPMI1640 media for 24 h. The supernatant was replaced with new media (200 μL) and MTT stock solution (10 μL, 5 mg/mL) was added to each well. After incubation for 1 hr the media were removed, DMSO (200 μL) was added to each well and the plates were shaken lightly for 1 hr prior to reading the absorbance at 550 nm. The percentage loss of cell viability was calculated for each well relative to vehicle (0.5% DMSO) treatment. Consequently an apparent increase in cell viability for drug treatment relative to vehicle is tabulated as a negative percentage.
(In general: Tetrazolium assays rely on reduction of a dye to a coloured formazan, in cell work by metabolically active cells.)

Sequence of GSK 3α enzyme isoform (P49840 whole entry, canonical isoform): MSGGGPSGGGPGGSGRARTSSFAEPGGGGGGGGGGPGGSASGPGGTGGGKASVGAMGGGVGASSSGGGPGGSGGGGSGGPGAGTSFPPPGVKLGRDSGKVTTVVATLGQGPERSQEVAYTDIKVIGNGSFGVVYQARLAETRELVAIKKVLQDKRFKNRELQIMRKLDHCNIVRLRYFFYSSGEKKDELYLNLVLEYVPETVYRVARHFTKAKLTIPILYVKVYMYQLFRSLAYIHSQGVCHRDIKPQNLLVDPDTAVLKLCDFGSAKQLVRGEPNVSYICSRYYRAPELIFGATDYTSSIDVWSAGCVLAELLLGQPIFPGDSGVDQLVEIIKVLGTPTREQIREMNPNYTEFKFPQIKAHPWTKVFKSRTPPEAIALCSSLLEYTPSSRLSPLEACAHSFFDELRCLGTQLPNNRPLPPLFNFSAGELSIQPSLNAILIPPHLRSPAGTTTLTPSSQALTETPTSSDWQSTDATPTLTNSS
Sequence of p38 MAPKα isoform (MAPK14) (Q16539 whole entry, canonical isoform): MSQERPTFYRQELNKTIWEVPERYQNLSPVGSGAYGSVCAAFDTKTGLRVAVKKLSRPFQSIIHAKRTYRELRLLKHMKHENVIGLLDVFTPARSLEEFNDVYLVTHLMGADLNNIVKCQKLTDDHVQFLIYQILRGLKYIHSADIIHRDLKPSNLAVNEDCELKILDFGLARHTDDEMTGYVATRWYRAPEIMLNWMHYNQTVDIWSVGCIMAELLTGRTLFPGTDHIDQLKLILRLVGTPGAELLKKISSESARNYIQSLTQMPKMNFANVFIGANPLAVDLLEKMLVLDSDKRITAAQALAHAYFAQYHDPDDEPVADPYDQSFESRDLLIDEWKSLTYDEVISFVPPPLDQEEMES
Sequence of p38MAPKγ (MAPK12) (P53778 whole entry): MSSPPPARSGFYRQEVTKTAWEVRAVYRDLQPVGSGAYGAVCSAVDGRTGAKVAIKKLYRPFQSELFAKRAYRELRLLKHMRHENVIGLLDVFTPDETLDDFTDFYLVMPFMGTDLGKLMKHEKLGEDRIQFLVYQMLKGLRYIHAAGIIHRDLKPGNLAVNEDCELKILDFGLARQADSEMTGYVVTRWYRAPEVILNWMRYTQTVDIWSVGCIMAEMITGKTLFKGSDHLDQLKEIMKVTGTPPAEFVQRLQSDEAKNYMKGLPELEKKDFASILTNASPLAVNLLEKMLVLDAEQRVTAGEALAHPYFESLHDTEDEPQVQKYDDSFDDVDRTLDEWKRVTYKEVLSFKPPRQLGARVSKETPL

`Cc1ccc(-n2nc(C(C)(C)C)cc2NC(=O)Nc2ccc(Oc3ccnc(Nc4cccc(F)c4)n3)c3ccccc23)cc1` [Example 15, 1-(3-(tert-butyl)-1-(p-tolyl)-1H-pyrazol-5-yl)-3-(4-((2-((3-fluorophenyl)amino)pyrimidin-4-yl)oxy)naphthalen-1-yl)urea]: the IC50 in data set [1] is more than 16600 nM; in data set [2], 155 nM; in data set [3], more than 16600 nM; in data set [4], 9.3 nM. Moreover, the “MTT Assay Cell viability at time point in d-U937 Cells” value (“MTT Assay Cell viability” for short) was “−ve (−ve and +ve indicate the value is below and above respectively, the no significant effect threshold defined as 30% inhibition at 1 μg/mL at the time point indicated)” in data set [5] (4 h); “−ve (−ve and +ve indicate the value is below and above respectively, the no significant effect threshold defined as 30% inhibition at 1 μg/mL at the time point indicated)” in data set [5] (24 h).
Take `COc1ccc(Nc2nccc(Oc3ccc(NC(=O)Nc4cc(C(C)(C)C)nn4-c4ccc(C)cc4)c4ccccc34)n2)cc1` [Example 17, 1-(3-(tert-butyl)-1-(p-tolyl)-1H-pyrazol-5-yl)-3-(4-((2-((4-methoxyphenyl)amino)pyrimidin-4-yl)oxy)naphthalen-1-yl)urea]: the IC50 was more than 16300 nM in data set [1], 83 nM in data set [2], more than 16300 nM in data set [3] and 6.7 nM in data set [4]. Also, the “MTT Assay Cell viability” value was “−ve (−ve and +ve indicate the value is below and above respectively, the no significant effect threshold defined as 30% inhibition at 1 μg/mL at the time point indicated)” in data set [5] (4 h); “−ve (−ve and +ve indicate the value is below and above respectively, the no significant effect threshold defined as 30% inhibition at 1 μg/mL at the time point indicated)” in data set [5] (24 h).
Regarding `Cc1ccc(-n2nc(C(C)(C)C)cc2NC(=O)Nc2ccc(Oc3ccnc(Nc4ccccc4C(C)C)n3)c3ccccc23)cc1` [Example 20, 1-(3-(tert-butyl)-1-(p-tolyl)-1H-pyrazol-5-yl)-3-(4-((2-((2-isopropylphenyl)amino)pyrimidin-4-yl)oxy)naphthalen-1-yl)urea], the IC50 in data set [1] is more than 16000 nM; in data set [2], 9 nM; in data set [3] it was more than 16000 nM; in data set [4] it was 16 nM. Moreover, the “MTT Assay Cell viability” value in data set [5] (4 h) is “−ve (−ve and +ve indicate the value is below and above respectively, the no significant effect threshold defined as 30% inhibition at 1 μg/mL at the time point indicated)”; in data set [5] (24 h), “−ve (−ve and +ve indicate the value is below and above respectively, the no significant effect threshold defined as 30% inhibition at 1 μg/mL at the time point indicated)”.
In the case of `Cc1ccc(-n2nc(C(C)(C)C)cc2NC(=O)Nc2ccc(Oc3ccnc(Nc4ccccc4C)n3)c3ccccc23)cc1` [Example 21, 1-(3-(tert-butyl)-1-(p-tolyl)-1H-pyrazol-5-yl)-3-(4-((2-(o-tolylamino)pyrimidin-4-yl)oxy)naphthalen-1-yl)urea], the IC50 in data set [1] is more than 1670 nM; in data set [2], 33 nM; in data set [3], more than 1670 nM; in data set [4], 36 nM. The “MTT Assay Cell viability” value in data set [5] (4 h) was “−ve (−ve and +ve indicate the value is below and above respectively, the no significant effect threshold defined as 30% inhibition at 1 μg/mL at the time point indicated)”; in data set [5] (24 h), “−ve (−ve and +ve indicate the value is below and above respectively, the no significant effect threshold defined as 30% inhibition at 1 μg/mL at the time point indicated)”.
For the molecule `Cc1ccc(-n2nc(C(C)(C)C)cc2NC(=O)Nc2ccc(Oc3ccnc(Nc4ccc(F)cc4)n3)c3ccccc23)cc1` [Example 23, 1-(3-(tert-butyl)-1-(p-tolyl)-1H-pyrazol-5-yl)-3-(4-((2-((4-fluorophenyl)amino)pyrimidin-4-yl)oxy)naphthalen-1-yl)urea], the IC50 in data set [1] is more than 1660 nM; in data set [2], 212 nM; in data set [3], more than 1660 nM; in data set [4], 4.2 nM. The “MTT Assay Cell viability” value in data set [5] (4 h) was “−ve (−ve and +ve indicate the value is below and above respectively, the no significant effect threshold defined as 30% inhibition at 1 μg/mL at the time point indicated)”; in data set [5] (24 h), “−ve (−ve and +ve indicate the value is below and above respectively, the no significant effect threshold defined as 30% inhibition at 1 μg/mL at the time point indicated)”.
In the case of `COc1ccc(Nc2nccc(Oc3ccc(NC(=O)Nc4cc(C(C)(C)C)nn4-c4ccc(C)cc4)c4ccccc34)n2)cc1Cl` [Example 28, 1-(3-(tert-butyl)-1-(p-tolyl)-1H-pyrazol-5-yl)-3-(4-((2-((3-chloro-4-methoxyphenyl)amino)pyrimidin-4-yl)oxy)naphthalen-1-yl)urea], the IC50 in data set [1] is more than 1540 nM; in data set [2], 1420 nM; in data set [3], more than 1540 nM; in data set [4] it was 3 nM. In addition, the “MTT Assay Cell viability” value was “−ve (−ve and +ve indicate the value is below and above respectively, the no significant effect threshold defined as 30% inhibition at 1 μg/mL at the time point indicated)” in data set [5] (4 h); “−ve (−ve and +ve indicate the value is below and above respectively, the no significant effect threshold defined as 30% inhibition at 1 μg/mL at the time point indicated)” in data set [5] (24 h).
On to `Cc1ccc(-n2nc(C(C)(C)C)cc2NC(=O)Nc2ccc(Oc3ccnc(Nc4ccc(O)cc4F)n3)c3ccccc23)cc1` [Example 30, 1-(3-(tert-butyl)-1-(p-tolyl)-1H-pyrazol-5-yl)-3-(4-((2-((2-fluoro-4-hydroxyphenyl)amino)pyrimidin-4-yl)oxy)naphthalen-1-yl)urea], for which the IC50 in data set [1] is more than 1620 nM; in data set [2], 68 nM; in data set [3] it was more than 1620 nM; in data set [4] it was 11 nM. The “MTT Assay Cell viability” value in data set [5] (4 h) is “−ve (−ve and +ve indicate the value is below and above respectively, the no significant effect threshold defined as 30% inhibition at 1 μg/mL at the time point indicated)”; in data set [5] (24 h), “−ve (−ve and +ve indicate the value is below and above respectively, the no significant effect threshold defined as 30% inhibition at 1 μg/mL at the time point indicated)”.
